Results as given in ChEMBL document CHEMBL3885881, “DrugMatrix”.

Species: Rattus norvegicus
Experiment: DrugMatrix - Regimen: Daily Repeat
Assay type: toxicity, organism-based, Sprague-Dawley
Parameters: regimen Daily Repeat, gender Male, age 6-8 weeks
Details: in vivo, po, route oral GAVAGE, vehicle 100 % WATER; for ABSOLUTE BASOPHIL / ABSOLUTE EOSINOPHIL / ABSOLUTE LYMPHOCYTE / ABSOLUTE MONOCYTE / ABSOLUTE SEGMENTED NEUTROPHIL / BASOPHIL / EOSINOPHIL / ERYTHROCYTE COUNT / HEMATOCRIT / HEMOGLOBIN / LEUKOCYTE COUNT / LYMPHOCYTE / MEAN CORPUSCULAR HEMOGLOBIN / MEAN CORPUSCULAR HEMOGLOBIN CONCENTRATION / MEAN CORPUSCULAR VOLUME / MONOCYTE / NEUTROPHIL / NUCLEATED RED BLOOD CELLS / PLATELET COUNT: tissue Blood; for ALANINE AMINOTRANSFERASE / ALBUMIN / ALKALINE PHOSPHATASE / ASPARTATE AMINOTRANSFERASE / BLOOD UREA NITROGEN / CARBON DIOXIDE / CHLORIDE / CHOLESTEROL / CREATINE PHOSPHOKINASE / CREATININE / GLUCOSE / LACTATE DEHYDROGENASE / LIPASE / PHOSPHORUS / POTASSIUM / SODIUM / TOTAL BILIRUBIN / TOTAL PROTEIN / URIC ACID: tissue Plasma
[1] = 900 mg/kg, 120 h, dose level Low, time 5 day
[2] = 5000 mg/kg, 72 h, dose level High, time 3 day
[3] = 5000 mg/kg, 120 h, dose level High, time 5 day

With `Clc1ccc(C(c2ccccc2Cl)C(Cl)Cl)cc1` (centres undefined) [MITOTANE] the “ABSOLUTE BASOPHIL” value [1] was 0 CELLS/uL, the “ABSOLUTE EOSINOPHIL” value [1] was 0 CELLS/uL and the “ABSOLUTE LYMPHOCYTE” value [1] was 11920 CELLS/uL. The “ABSOLUTE MONOCYTE” value [1] was 138 CELLS/uL, the “ABSOLUTE SEGMENTED NEUTROPHIL” value [1] was 942 CELLS/uL and the BASOPHIL [1] was 0%. The EOSINOPHIL [1] was 0%, the “ERYTHROCYTE COUNT” value [1] was 5.65 x10E6/uL and the HEMATOCRIT [1] was 36%. For the same compound, the HEMOGLOBIN [1] was 14.27 G/DL, the “LEUKOCYTE COUNT” value [1] was 13 x10E3/uL and the LYMPHOCYTE [1] was 91.67%. The “MEAN CORPUSCULAR HEMOGLOBIN” value [1] was 25.3 pg, the “MEAN CORPUSCULAR HEMOGLOBIN CONCENTRATION” value [1] was 39.6 G/DL and the “MEAN CORPUSCULAR VOLUME” value [1] was 63.73 fL. For the same compound, the MONOCYTE [1] was 1%, the NEUTROPHIL [1] was 7.33% and the “NUCLEATED RED BLOOD CELLS” value [1] was 0 /100WBC. The “PLATELET COUNT” value [1] was 1407.33 x10E3/uL, the “ALANINE AMINOTRANSFERASE” value [1] was 52 u/L and the ALBUMIN [1] was 4.07 G/DL. For the same compound, the “ALKALINE PHOSPHATASE” value [1] was 421.33 u/L, the “ASPARTATE AMINOTRANSFERASE” value [1] was 89.67 u/L and the “BLOOD UREA NITROGEN” value [1] was 13.67 mg/dL. For the same compound, the “CARBON DIOXIDE” value [1] was 30.67 mmol/L, the CHLORIDE [1] was 100 MEQ/L and the CHOLESTEROL [1] was 71 mg/dL. For the same compound, the “CREATINE PHOSPHOKINASE” value [1] was 382 u/L, the CREATININE [1] was 0.2 mg/dL and the GLUCOSE [1] was 148.67 mg/dL. The “LACTATE DEHYDROGENASE” value [1] was 632.67 u/L, the LIPASE [1] was 11 u/L and the PHOSPHORUS [1] was 12.57 mg/dL. For the same compound, the POTASSIUM [1] was 6.42 MEQ/L, the SODIUM [1] was 142.8 MEQ/L and the “TOTAL BILIRUBIN” value [1] was 0.13 mg/dL. For the same compound, the “TOTAL PROTEIN” value [1] was 6.03 G/DL, the “URIC ACID” value [1] was 2.17 mg/dL and the “ABSOLUTE BASOPHIL” value [2] was 0 CELLS/uL. The “ABSOLUTE EOSINOPHIL” value [2] was 124.33 CELLS/uL, the “ABSOLUTE LYMPHOCYTE” value [2] was 15356 CELLS/uL and the “ABSOLUTE MONOCYTE” value [2] was 296.33 CELLS/uL. The “ABSOLUTE SEGMENTED NEUTROPHIL” value [2] was 556.67 CELLS/uL, the BASOPHIL [2] was 0% and the EOSINOPHIL [2] was 0.67%. The “ERYTHROCYTE COUNT” value [2] was 5.76 x10E6/uL, the HEMATOCRIT [2] was 36.73% and the HEMOGLOBIN [2] was 14.3 G/DL. For the same compound, the “LEUKOCYTE COUNT” value [2] was 16.33 x10E3/uL, the LYMPHOCYTE [2] was 94.67% and the “MEAN CORPUSCULAR HEMOGLOBIN” value [2] was 24.83 pg. For the same compound, the “MEAN CORPUSCULAR HEMOGLOBIN CONCENTRATION” value [2] was 38.93 G/DL, the “MEAN CORPUSCULAR VOLUME” value [2] was 63.8 fL and the MONOCYTE [2] was 1.67%. The NEUTROPHIL [2] was 3%, the “NUCLEATED RED BLOOD CELLS” value [2] was 0 /100WBC and the “PLATELET COUNT” value [2] was 1407.33 x10E3/uL. The “ALANINE AMINOTRANSFERASE” value [2] was 75.67 u/L, the ALBUMIN [2] was 3.93 G/DL and the “ALKALINE PHOSPHATASE” value [2] was 512.67 u/L. For the same compound, the “ASPARTATE AMINOTRANSFERASE” value [2] was 87 u/L, the “BLOOD UREA NITROGEN” value [2] was 12.33 mg/dL and the “CARBON DIOXIDE” value [2] was 32.67 mmol/L. The CHLORIDE [2] was 101 MEQ/L, the CHOLESTEROL [2] was 72.33 mg/dL and the “CREATINE PHOSPHOKINASE” value [2] was 440.67 u/L. The CREATININE [2] was 0.19 mg/dL, the GLUCOSE [2] was 123.33 mg/dL and the “LACTATE DEHYDROGENASE” value [2] was 189.33 u/L. The LIPASE [2] was 10.33 u/L, the PHOSPHORUS [2] was 11.37 mg/dL and the POTASSIUM [2] was 6.63 MEQ/L. The SODIUM [2] was 144.03 MEQ/L, the “TOTAL BILIRUBIN” value [2] was 0.1 mg/dL and the “TOTAL PROTEIN” value [2] was 6.13 G/DL. The “URIC ACID” value [2] was 1.53 mg/dL, the “ABSOLUTE BASOPHIL” value [3] was 0 CELLS/uL and the “ABSOLUTE EOSINOPHIL” value [3] was 32.67 CELLS/uL. The “ABSOLUTE LYMPHOCYTE” value [3] was 11464 CELLS/uL, the “ABSOLUTE MONOCYTE” value [3] was 86.67 CELLS/uL and the “ABSOLUTE SEGMENTED NEUTROPHIL” value [3] was 983.33 CELLS/uL. For the same compound, the BASOPHIL [3] was 0%, the EOSINOPHIL [3] was 0.33% and the “ERYTHROCYTE COUNT” value [3] was 5.42 x10E6/uL. For the same compound, the HEMATOCRIT [3] was 34.3%, the HEMOGLOBIN [3] was 13.47 G/DL and the “LEUKOCYTE COUNT” value [3] was 12.57 x10E3/uL. The LYMPHOCYTE [3] was 91.33%, the “MEAN CORPUSCULAR HEMOGLOBIN” value [3] was 24.83 pg and the “MEAN CORPUSCULAR HEMOGLOBIN CONCENTRATION” value [3] was 39.3 G/DL. For the same compound, the “MEAN CORPUSCULAR VOLUME” value [3] was 63.2 fL, the MONOCYTE [3] was 0.67% and the NEUTROPHIL [3] was 7.67%. The “NUCLEATED RED BLOOD CELLS” value [3] was 0 /100WBC, the “PLATELET COUNT” value [3] was 1284 x10E3/uL and the “ALANINE AMINOTRANSFERASE” value [3] was 63.67 u/L. The ALBUMIN [3] was 4.07 G/DL, the “ALKALINE PHOSPHATASE” value [3] was 426.67 u/L and the “ASPARTATE AMINOTRANSFERASE” value [3] was 73 u/L. For the same compound, the “BLOOD UREA NITROGEN” value [3] was 15 mg/dL, the “CARBON DIOXIDE” value [3] was 34.67 mmol/L and the CHLORIDE [3] was 97.33 MEQ/L. For the same compound, the CHOLESTEROL [3] was 99.67 mg/dL, the “CREATINE PHOSPHOKINASE” value [3] was 400.67 u/L and the CREATININE [3] was 0.19 mg/dL. The GLUCOSE [3] was 133.33 mg/dL, the “LACTATE DEHYDROGENASE” value [3] was 123.33 u/L and the LIPASE [3] was 11.33 u/L. The PHOSPHORUS [3] was 11.97 mg/dL, the POTASSIUM [3] was 6.85 MEQ/L and the SODIUM [3] was 141.7 MEQ/L. The “TOTAL BILIRUBIN” value [3] was 0.2 mg/dL, the “TOTAL PROTEIN” value [3] was 6.37 G/DL and the “URIC ACID” value [3] was 1.57 mg/dL.
